Tested on: 616215-338-R-J1-PDC spheroids with HUVEC/MSC, viability
Experiment: Anticancer human tumor 616215-338-R-J1-PDC patient-derived colon adenocarcinoma cell line growth inhibition [PI3K]
Details: for viability, T/C: stronger effect = lower value
From the text: Combinatorial screen of targeted agents with the PI3K inhibitors inavolisib, alpelisib, duvelisib, and copanlisib in multi-cell type tumor spheroids
A high-throughput screen of multi-cell type tumor spheroids was designed to identify active combinations of targeted small molecules and PI3K pathway inhibitors. Complex spheroids include a stromal component modeled by human endothelial cells (HUVEC) and fibroblasts modeled by human mesenchymal stem cells (MSCs). The concentration ranges selected for each drug and investigational agent were based upon clinically achievable concentrations if the clinical Cmax of the agent was known.
Compounds. The drugs and investigational agents: inavolisib (NSC800729), alpelisib (NSC765974), duvelisib (NSC772469), copanlisib (NSC816437), ipatasertib (NSC767898), afuresertib (NSC778305), talazoparib (NSC767125), sapanisertib (NSC764658), selumetinib (NSC741078), tovorafenib (DAY101, NSC766906), vemurafenib (NSC761431), ravoxertinib (NSC781343), sotorasib (NSC818433), MRTX1133 (NSC 836407), abemaciclib (NSC 768073), palbociclib (NSC758247), venetoclax (NSC 766270), SY5609 (NSC837396), enzalutamide (NSC755605), and darolutamide (NSC825331), were obtained from the National Cancer Institute (NCI) Developmental Therapeutics Program Chemical Repository. The FDA-approved anticancer drug set is available from the NCI Developmental Therapeutics Program. […] The stock solutions were prepared in dimethyl sulfoxide (DMSO, Sigma-Aldrich, St. Louis, MO, cat. D2650) at 800-fold the tested concentration and stored at -70 degrees C prior to their use. All drugs and investigational agents were tested over a range starting from a high concentration at or near the clinical Cmax and decreasing in half-log increments. If the clinical Cmax for an agent had not been determined, the highest concentration tested was 10 microM.
Cell Culture. All cells were maintained in an incubator at 37 degrees C and 5% CO2 with 95% humidity. The PDC lines were cultured according to standard operating procedures established by the NCI PDMR (https://pdmr.cancer.gov/sops/default.htm). All PDCs were thawed and cultured in Matrigel-coated flasks prepared with a working solution of 1X Ham's F-12 nutrient mix, without supplementation (Invitrogen, Waltham, MA, cat. 11765054), 100 U/mL penicillin-streptomycin (Invitrogen, cat. 15140122), and 2.5% Matrigel (Corning Inc., Corning, NY, cat. 354248) for the first three passages. The 354836-022-R-J1-PDC, 475296-252-R-J1-PDC, and 997726-040-R-J2-PDC lines were cultured in 6A media, which includes advanced DMEM/F-12 (Thermo Fisher Scientific, cat. 12634028), 10 mM HEPES (Thermo Fisher Scientific, cat. 15630080), 1X GlutaMAX supplement (Thermo Fisher Scientific, cat. 35050061), 0.1 mg/mL primocin (InvivoGen, San Diego, CA, cat. ant-pm-2), 10% defined fetal bovine serum, heat inactivated (HyClone Laboratories Inc., Logan, UT, cat. SH30070.03HI), 50% L-WRN conditioned media (ATCC, cat. CRL-3276), 1.25 mM N-Acetyl-L-cysteine (Sigma-Aldrich, cat. A9165), 10 mM nicotinamide (Sigma-Aldrich, cat. N0636), 1X B-27 supplement (Thermo Fisher Scientific, cat. 17504044), 1X N-2 supplement (Thermo Fisher Scientific, cat. 17502048), and 10 microM Y-27632 dihydrochloride (Tocris Bioscience, Bristol, United Kingdom, cat. 1254). The 624824-186-R-J2-PDC line was cultured in 6C/Colon 1B media, which includes all 6A media components plus 50 ng/mL human EGF recombinant protein (Thermo Fisher Scientific, cat. PHG0311). […]

[1] = curve of first compound, second compound 0.0316 µM
[2] = curve of first compound, second compound 0.1 µM
[3] = curve of first compound, second compound 0.316 µM
[4] = curve of first compound, second compound 1 µM
[5] = second compound 0.0316 µM, first compound 0.0316 µM
[6] = second compound 0.0316 µM, first compound 0.1 µM
[7] = second compound 0.0316 µM, first compound 0.316 µM
[8] = second compound 0.0316 µM, first compound 1 µM
[9] = second compound 0.0316 µM, first compound 3.16 µM
[10] = second compound 0.0316 µM, first compound 10 µM
[11] = second compound 0.1 µM, first compound 0.0316 µM
[12] = second compound 0.1 µM, first compound 0.1 µM
[13] = second compound 0.1 µM, first compound 0.316 µM
[14] = second compound 0.1 µM, first compound 1 µM
[15] = second compound 0.1 µM, first compound 3.16 µM
[16] = second compound 0.1 µM, first compound 10 µM
[17] = second compound 0.316 µM, first compound 0.0316 µM
[18] = second compound 0.316 µM, first compound 0.1 µM
[19] = second compound 0.316 µM, first compound 0.316 µM
[20] = second compound 0.316 µM, first compound 1 µM
[21] = second compound 0.316 µM, first compound 3.16 µM
[22] = second compound 0.316 µM, first compound 10 µM
[23] = second compound 1 µM, first compound 0.0316 µM
[24] = second compound 1 µM, first compound 0.1 µM
[25] = second compound 1 µM, first compound 0.316 µM
[26] = second compound 1 µM, first compound 1 µM
[27] = second compound 1 µM, first compound 3.16 µM
[28] = second compound 1 µM, first compound 10 µM
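Note: spheroids exposed to agents for seven days before the viability read.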

C#Cc1c(F)ccc2cc(O)cc(-c3ncc4c(N5CC6CCC(C5)N6)nc(OCC56CCCN5CC(F)C6)nc4c3F)c12 (stereo unspecified) + COc1c(OCCCN2CCOCC2)ccc2c3n(c(=NC(=O)c4cnc(N)nc4)nc12)CCN3
IC50 (curve of first compound, second compound 0.00316 µM): > 10 µM
IC50 (curve of first compound, second compound 0.01 µM): 7.8 µM
IC50 [1]: 8.36 µM
IC50 [2]: 5.99 µM
IC50 [3]: < 0.0316 µM
IC50 [4]: < 0.0316 µM
viability, T/C (second compound 0.00316 µM, first compound 0.0316 µM): 95.5%
viability, T/C (second compound 0.00316 µM, first compound 0.1 µM): 89.2%
viability, T/C (second compound 0.00316 µM, first compound 0.316 µM): 90.4%
viability, T/C (second compound 0.00316 µM, first compound 1 µM): 91.4%
viability, T/C (second compound 0.00316 µM, first compound 3.16 µM): 94.9%
viability, T/C (second compound 0.00316 µM, first compound 10 µM): 72%
viability, T/C (second compound 0.01 µM, first compound 0.0316 µM): 95.5%
viability, T/C (second compound 0.01 µM, first compound 0.1 µM): 89.7%
viability, T/C (second compound 0.01 µM, first compound 0.316 µM): 91.8%
viability, T/C (second compound 0.01 µM, first compound 1 µM): 102%
viability, T/C (second compound 0.01 µM, first compound 3.16 µM): 73.6%
viability, T/C (second compound 0.01 µM, first compound 10 µM): 43.5%
viability, T/C [5]: 101%
viability, T/C [6]: 98.1%
viability, T/C [7]: 95.4%
viability, T/C [8]: 106%
viability, T/C [9]: 81.5%
viability, T/C [10]: 44.1%
viability, T/C [11]: 94%
viability, T/C [12]: 95.9%
viability, T/C [13]: 90.2%
viability, T/C [14]: 93.7%
viability, T/C [15]: 74.7%
viability, T/C [16]: 30.3%
viability, T/C [17]: 38.2%
viability, T/C [18]: 42.4%
viability, T/C [19]: 38.2%
viability, T/C [20]: 30.9%
viability, T/C [21]: 32.4%
viability, T/C [22]: 17.9%
viability, T/C [23]: 19.8%
viability, T/C [24]: 27.1%
viability, T/C [25]: 17.3%
viability, T/C [26]: 10.8%
viability, T/C [27]: 6.21%
viability, T/C [28]: 0.88%

CNC(=O)c1ccc(N2C(=S)N(c3ccc(C#N)c(C(F)(F)F)c3)C(=O)C2(C)C)cc1F + CC(Nc1ncnc2nc[nH]c12)c1cc2cccc(Cl)c2c(=O)n1-c1ccccc1
IC50 [1]: > 10 µM
IC50 [2]: > 10 µM
IC50 [3]: > 10 µM
IC50 [4]: > 10 µM
IC50 (curve of first compound, second compound 3.16 µM): > 10 µM
IC50 (curve of first compound, second compound 10 µM): > 10 µM
viability, T/C [5]: 98.5%
viability, T/C [6]: 107%
viability, T/C [7]: 109%
viability, T/C [8]: 106%
viability, T/C [9]: 104%
viability, T/C [10]: 101%
viability, T/C [11]: 91%
viability, T/C [12]: 98.9%
viability, T/C [13]: 96%
viability, T/C [14]: 97.9%
viability, T/C [15]: 108%
viability, T/C [16]: 114%
viability, T/C [17]: 97.2%
viability, T/C [18]: 97%
viability, T/C [19]: 105%
viability, T/C [20]: 97.1%
viability, T/C [21]: 110%
viability, T/C [22]: 112%
viability, T/C [23]: 113%
viability, T/C [24]: 109%
viability, T/C [25]: 111%
viability, T/C [26]: 105%
viability, T/C [27]: 111%
viability, T/C [28]: 114%
viability, T/C (second compound 3.16 µM, first compound 0.0316 µM): 95.6%
viability, T/C (second compound 3.16 µM, first compound 0.1 µM): 94.3%
viability, T/C (second compound 3.16 µM, first compound 0.316 µM): 111%
viability, T/C (second compound 3.16 µM, first compound 1 µM): 104%
viability, T/C (second compound 3.16 µM, first compound 3.16 µM): 103%
viability, T/C (second compound 3.16 µM, first compound 10 µM): 106%
viability, T/C (second compound 10 µM, first compound 0.0316 µM): 104%
viability, T/C (second compound 10 µM, first compound 0.1 µM): 117%
viability, T/C (second compound 10 µM, first compound 0.316 µM): 117%
viability, T/C (second compound 10 µM, first compound 1 µM): 116%
viability, T/C (second compound 10 µM, first compound 3.16 µM): 110%
viability, T/C (second compound 10 µM, first compound 10 µM): 116%

Cc1nc(NC(=O)N2CCCC2C(N)=O)sc1-c1ccnc(C(C)(C)C(F)(F)F)c1 (stereo unspecified)
viability, T/C (compound 0.0316 µM): 97.3% [middle of 8 runs]
viability, T/C (compound 0.1 µM): 102% [middle of 8 runs]
viability, T/C (compound 0.316 µM): 106% [middle of 8 runs]
viability, T/C (compound 1 µM): 108% [middle of 8 runs]
viability, T/C (compound 3.16 µM): 100% [middle of 8 runs]
viability, T/C (compound 10 µM): 99.5% [middle of 8 runs]
IC50 (compound alone, run of 05/08/2023): > 10 µM
